Assay results: patent publication US20190119282A1, “IMIDAZOPYRIDAZINES USEFUL AS INHIBITORS OF THE PAR-2 SIGNALING PATHWAY” (Vertex Pharmaceuticals Incorporated, priority 2013, published 2019)

Assays:
[1] = test system: UTP-stimulated Ca2+ response in HT-29 cells; assay: Ca FLIPR TETRA assay, ANTAGONIST mode, stimulation with 0.6 μM UTP; assay type: cell-based, human; settings: Homo sapiens, HT-29 cells
Outline: (§1)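 HT-29 cells in 1% FBS/McCoy's overnight, loaded with Calcium 5 dye; compounds added and read first for intrinsic Ca2+ activation, then incubated 30 min at r.t. Antagonism read on FLIPR Tetra after stimulation with final 8 μM SLIGKV, 3.1 U/mL trypsin, 1 U/mL thrombin or 0.6 μM UTP.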

[2] = biological target: T1, PAR2 (HT-29 cells, trypsin activation) (Homo sapiens, UniProt P55085); assay: Ca FLIPR TETRA assay, ANTAGONIST mode, stimulation with 3.1 U/mL trypsin; assay type: cell-based; settings: HT-29 cells
T1 construct: host or cells: HT-29 cells
T1 sequence (P55085 26-397): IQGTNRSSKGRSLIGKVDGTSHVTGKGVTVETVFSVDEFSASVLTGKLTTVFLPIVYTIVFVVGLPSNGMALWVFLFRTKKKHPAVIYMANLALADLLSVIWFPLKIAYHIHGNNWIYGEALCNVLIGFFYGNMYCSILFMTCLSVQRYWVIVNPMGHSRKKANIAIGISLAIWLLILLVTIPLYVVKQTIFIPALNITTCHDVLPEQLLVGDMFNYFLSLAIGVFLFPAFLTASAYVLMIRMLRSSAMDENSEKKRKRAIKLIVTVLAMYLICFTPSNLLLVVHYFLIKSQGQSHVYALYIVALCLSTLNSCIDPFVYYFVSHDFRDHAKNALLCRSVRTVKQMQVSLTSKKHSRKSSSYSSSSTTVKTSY
Outline: as §1

[3] = biological target: T2, PAR2 (HT-29 cells, SLIGKV activation) (Homo sapiens, UniProt P55085); assay: Ca FLIPR TETRA assay, ANTAGONIST mode, stimulation with 8 μM SLIGKV; assay type: cell-based; settings: HT-29 cells
T2 construct: host or cells: HT-29 cells
T2 sequence (P55085 26-397): T1 sequence (P55085 26-397)
Outline: as §1

[4] = test system: Thrombin-stimulated Ca2+ response in HT-29 cells; assay: Ca FLIPR TETRA assay, ANTAGONIST mode, stimulation with 1 U/mL Thrombin; assay type: cell-based, human; settings: Homo sapiens, HT-29 cells
Outline: as §1

[5] = stimulation with 3.1 U/mL trypsin
[6] = stimulation with 1 U/mL Thrombin
[7] = antagonist mode, stimulation with 0.6 μM UTP
[8] = antagonist mode, stimulation with 3.1 U/mL trypsin
[9] = antagonist mode, stimulation with 8 μM SLIGKV
[10] = antagonist mode, stimulation with 1 U/mL Thrombin

Row | Structure (SMILES) | IC50 [1, 7] | IC50 [2, 8] | IC50 [3, 9] | IC50 [4, 10] | also measured
1 | CC(C)c1cc(C#CC2CC2)nn2cc(C(=O)N3CCN(C(=O)C4(O)CCC4)CC3(C)C)nc12 [Compound I-42, [6-(2-Cyclopropylethynyl)-8-isopropyl-imidazo[1,2-b]pyridazin-2-yl]-[4-(1-hydroxycyclobutanecarbonyl)-2,2-dimethyl-piperazin-1-yl]methanone] | – | – | – | – | IC50 ([1]; stimulation with 0.6 μM UTP): 41000 nM; IC50 [2, 5]: 5200 nM; IC50 ([3]; stimulation with 8 μM SLIGKV): 2200 nM; IC50 [4, 6]: 32000 nM
2 | COC(=O)[C@H]1CC[C@@H](C(=O)N2CCN(C(=O)c3cn4nc(C(C)C)cc(C(C)C)c4n3)C(C)(C)C2)CC1 [Compound I-550] | > 30000 nM | 1050 nM | 773 nM | > 30000 nM | –
3 | CC(C)(C)c1cc(-c2ccc(F)c(Cl)c2)nn2cc(C(=O)N3CCN(C(=O)C4CC(C(=O)O)C4)CC3(C)C)nc12 (stereo not shown) [Compound I-486] | 2180 nM | 2.1 nM | 1.7 nM | 4150 nM | –
4 | Cc1ncc(C(=O)N2CCN(C(=O)c3cn4nc(-c5ccc(Cl)c(F)c5)cc(C(C)(C)C)c4n3)C(C)(C)C2)[nH]1 [Compound I-453] | > 1000 nM | 1.2 nM | 0.7 nM | > 1000 nM | –
5 | Cc1cc(-c2ccc(F)cc2)nn2cc(C(=O)N3CCC(C#N)CC3)nc12 [Compound I-60] | – | – | – | – | IC50 ([1]; stimulation with 0.6 μM UTP): 40000 nM; IC50 [2, 5]: 14000 nM; IC50 ([3]; stimulation with 8 μM SLIGKV): 7900 nM; IC50 [4, 6]: 32000 nM
6 | Cc1ccc(-c2cc(C(C)(C)C)c3nc(C(=O)N4CCN(C(=O)c5nnc(C)o5)CC4(C)C)cn3n2)cc1 [Compound I-393] | > 1000 nM | 1.5 nM | 1.6 nM | > 1000 nM | –
7 | CC(C)(C)C[C@@H](O)C(=O)N1CCN(C(=O)c2cn3nc(-c4ccc(F)cc4)cc(C(F)(F)F)c3n2)CC1 [Compound I-52] | – | – | – | – | IC50 ([1]; stimulation with 0.6 μM UTP): 16000 nM; IC50 [2, 5]: 350 nM; IC50 ([3]; stimulation with 8 μM SLIGKV): 140 nM; IC50 [4, 6]: 47000 nM
8 | CC(C)(C)c1cc(-c2ccc(F)cc2)nn2cc(C(=O)N3CCN(C(=O)c4ccncc4)CC3(C)C)nc12 [Compound I-286] | > 1000 nM | 3.9 nM | 2.7 nM | 840 nM | –
9 | CCOC(=O)[C@@H]1CCCN(C(=O)c2cn3nc(-c4ccc(F)cc4)cc(C(F)(F)F)c3n2)[C@@H]1C [Compound I-75] | – | – | – | – | IC50 ([1]; stimulation with 0.6 μM UTP): 2200 nM; IC50 [2, 5]: 1200 nM; IC50 ([3]; stimulation with 8 μM SLIGKV): 1100 nM; IC50 [4, 6]: 1600 nM
10 | CC(C)(C)c1cc(C2CCC(F)(F)CC2)nn2cc(C(=O)N3CCN(C(=O)[C@H]4C[C@H](C(=O)O)C4)CC3(C)C)nc12 [Compound I-515] | > 1000 nM | 110 nM | 62.5 nM | > 1000 nM | –
11 | COCC(C)(C)c1cc(-c2ccc(F)cc2)nn2cc(C(=O)N3CCNC(=O)C3(C)C)nc12 [Compound I-193] | 19000 nM | 46 nM | 5.3 nM | 10000 nM | –
12 | CC(C)c1cc(-c2ccc(F)cc2)nn2cc(C(=O)N3CCN(C(=O)c4ccn[nH]4)CC3(C)C)nc12 [Compound I-239] | > 1000 nM | 6.4 nM | 3.2 nM | > 1000 nM | –
13 | Cc1cc(C)n(CCC(=O)N2CCN(C(=O)c3cn4nc(-c5ccc(F)cc5)cc(C(C)C)c4n3)C[C@@H]2C)n1 [Compound I-134] | – | – | – | – | IC50 ([1]; stimulation with 0.6 μM UTP): 7900 nM; IC50 [2, 5]: 280 nM; IC50 ([3]; stimulation with 8 μM SLIGKV): 12 nM; IC50 [4, 6]: 10000 nM
14 | Cc1nnc(C(=O)N2CCN(C(=O)c3cn4nc(-c5ccc(C)c(F)c5)cc(C(C)C)c4n3)C(C)(C)C2)o1 [Compound I-337] | > 1000 nM | 4.5 nM | 5.4 nM | > 1000 nM | –
15 | Cc1nc(C(=O)N2CCN(C(=O)c3cn4nc(-c5ccc(F)c(Cl)c5)cc(C(C)C)c4n3)C(C)(C)C2)n[nH]1 [Compound I-483] | 6800 nM | 4.3 nM | 2.5 nM | 6900 nM | –
16 | C[C@H](O)C(=O)N1CCN(C(=O)c2cn3nc(-c4ccc(F)cc4)cc(C4(C)CC4)c3n2)C(C)(C)C1 [Compound I-34, (2S)-1-[4-[6-(4-fluorophenyl)-8-(1-methylcyclopropyl)imidazo[1,2-b]pyridazine-2-carbonyl]-3,3-dimethyl-piperazin-1-yl]-2-hydroxy-propan-1-one] | – | – | – | – | IC50 ([1]; stimulation with 0.6 μM UTP): 21000 nM; IC50 [2, 5]: 59 nM; IC50 ([3]; stimulation with 8 μM SLIGKV): 54 nM; IC50 [4, 6]: 21000 nM
17 | CC(C)(C)c1cc(-c2ccc(Cl)cc2)nn2cc(C(=O)N3CCN(C(=O)c4ccn[nH]4)CC3(C)C)nc12 [Compound I-435] | > 1000 nM | 0.7 nM | 0.8 nM | > 1000 nM | –

Row | Structure (SMILES) | IC50 [1, 7] | IC50 [2, 8] | IC50 [3, 9] | IC50 [4, 10] | also measured
18 | CC1(c2cc(-c3ccc(F)cc3)nn3cc(C(=O)N4CCNC(=O)C4(C)C)nc23)CC1 [Compound I-30, 4-[6-(4-fluorophenyl)-8-(1-methylcyclopropyl)imidazo[1,2-b]pyridazine-2-carbonyl]-3,3-dimethyl-piperazin-2-one] | – | – | – | – | IC50 ([1]; stimulation with 0.6 μM UTP): 26000 nM; IC50 [2, 5]: 3 nM; IC50 ([3]; stimulation with 8 μM SLIGKV): 2 nM; IC50 [4, 6]: 25000 nM
19 | CC(C)(C)c1cc(-c2ccccc2)nn2cc(C(=O)N3CCNC(=O)C3(C)C)nc12 [Compound I-348] | 360 nM | 5.1 nM | 4 nM | 673 nM | –
20 | CC(C)(C)c1cc(-c2ccc(F)cc2)nn2cc(C(=O)N3CCN(C(=O)C4(C(=O)O)CC4)CC3(C)C)nc12 [Compound I-562] | – | – | – | – | IC50 ([1]; antagonist mode, 0.6 μM UTP): > 1000 nM; IC50 ([2]; antagonist mode, 3.1 U/mL trypsin): 128 nM; IC50 ([3]; antagonist mode, 8 μM SLIGKV): 28 nM; IC50 ([4]; antagonist mode, 1 U/mL Thrombin): > 1000 nM
21 | CC(C)c1cc(-c2ccc(F)cc2)nn2cc(C(=O)N3CCN(C(=O)[C@@H](O)C(C)C)[C@@H](C)C3)nc12 [Compound I-110] | – | – | – | – | IC50 ([1]; stimulation with 0.6 μM UTP): 18000 nM; IC50 [2, 5]: 1500 nM; IC50 ([3]; stimulation with 8 μM SLIGKV): 110 nM; IC50 [4, 6]: 19000 nM
22 | CN(C)C(=O)C(C)(C)c1cc(-c2ccc(F)cc2)nn2cc(C(=O)N3CCNC(=O)C3(C)C)nc12 [Compound I-192] | > 50000 nM | 8950 nM | 575 nM | > 50000 nM | –
23 | CC(C)c1cc(-c2ccc(F)cc2)nn2cc(C(=O)N3C[C@H](C)OCC3(C)C)nc12 [Compound I-187] | 33000 nM | 52.5 nM | 62.5 nM | > 50000 nM | –
24 | CC(C)c1cc(-c2ccc(C(F)(F)F)cc2)nn2cc(C(=O)N3CCN(C(=O)c4ccn[nH]4)CC3(C)C)nc12 [Compound I-246] | > 1000 nM | 2 nM | 1.7 nM | > 1000 nM | –
25 | Cc1nc(C(=O)N2CCN(C(=O)c3cn4nc(-c5ccc(C(F)(F)F)cc5)cc(C(C)C)c4n3)C(C)(C)C2)c[nH]1 [Compound I-372] | > 1000 nM | 5.6 nM | 4.5 nM | > 1000 nM | –
26 | Cc1ncc(C(=O)N2CCN(C(=O)c3cn4nc(-c5ccc(F)cc5)cc(C(C)(C)C)c4n3)C(C)(C)C2)[nH]1 [Compound I-312] | > 1000 nM | 1.3 nM | 1.3 nM | > 1000 nM | –
27 | CC(C)c1cc(-c2ccc(F)c(C(F)(F)F)c2)nn2cc(C(=O)N3CCN(C(=O)C(C)(C)O)CC3(C)C)nc12 [Compound I-222] | > 1000 nM | 205 nM | 108 nM | > 1000 nM | –
28 | Cc1ccc(-c2cc(C(C)C)c3nc(C(=O)N4CCN(C(=O)c5ccncn5)CC4(C)C)cn3n2)cc1 [Compound I-256] | > 1000 nM | 12.3 nM | 6.1 nM | > 1000 nM | –
29 | CC(C)c1cc(-c2ccc(F)cc2)nn2cc(C(=O)N3CCN(C(=O)C(O)C(C)C)C[C@H]3C)nc12 (stereo partly shown) [Compound I-195] | > 1000 nM | > 1000 nM | 570 nM | > 1000 nM | –
30 | Cc1ccc(-c2cc(C(C)C)c3nc(C(=O)N4CCN(C(=O)[C@H]5C[C@@](O)(C(F)(F)F)C5)CC4(C)C)cn3n2)cc1 [Compound I-263] | > 1000 nM | 7.2 nM | 6.5 nM | 220 nM | –
31 | CCC1(C)C(=O)NCCN1C(=O)c1cn2nc(-c3ccc(F)cc3)cc(C(C)C)c2n1 (stereo not shown) [Compound I-179] | – | – | – | – | IC50 ([1]; stimulation with 0.6 μM UTP): 8500 nM; IC50 [2, 5]: 11 nM; IC50 ([3]; stimulation with 8 μM SLIGKV): 3 nM; IC50 [4, 6]: 6900 nM
32 | CC(C)c1cc(-c2ccc(F)cc2)nn2cc(C(=O)N3CCN(C(=O)c4ccon4)CC3(C)C)nc12 [Compound I-321] | > 1000 nM | 2.8 nM | 1.5 nM | > 1000 nM | –
33 | CC(C)c1cc(-c2ccc(F)cc2)nn2cc(C(=O)N3CCN(C(=O)C(O)c4cccnc4)[C@@H](C)C3)nc12 (stereo partly shown) [Compound I-101] | – | – | – | – | IC50 ([1]; stimulation with 0.6 μM UTP): 30000 nM; IC50 [2, 5]: 1400 nM; IC50 ([3]; stimulation with 8 μM SLIGKV): 7 nM; IC50 [4, 6]: 27000 nM
34 | Cc1ccc(-c2cc(C(C)C)c3nc(C(=O)N4CCN(C(=O)[C@H]5C[C@](O)(C(F)(F)F)C5)CC4(C)C)cn3n2)cc1 [Compound I-254] | > 1000 nM | 0.3 nM | 0.2 nM | > 1000 nM | –
